Measurements: paper PMC12196213, “New Insights into the Anticancer Effects and Toxicogenomic Safety of Two β-Lapachone Derivatives” (Pharmaceuticals, 2025)
Several values for one entry are separate records, joined by “and”; a condition that tells them apart may be missing. Identical values can stand only once.

Legend:
[1] = test system: HeLa (human cervical adenocarcinoma); test: MTT cytotoxicity assay, HeLa; assay type: cell-based; details: for IC50: Homo sapiens, HeLa, MTT; for selectivity index (SI): IC50 L929 / IC50 HeLa
Experimental: To assess the cytotoxicity of the compounds, the MTT [3-(4,5-dimethylthiazol-2-yl)-2,5-diphenyltetrazolium bromide] assay was employed. The cells (2 × 10^5/mL) were incubated with the substances at concentrations ranging from 0.78 to 25 µg/mL. β-lap was used as a positive control. After 24, 48, or 72 h of incubation, MTT was added at a concentration of 5 mg/mL. Cell viability in different treatments was compared to the negative control using the following formula: Cell viability%=mean absorbance of treated samples/mean absorbance of negative control×100 The IC50 (the concentration that inhibits 50% of cell growth compared to the negative control) was calculated using nonlinear regression in GraphPad Prism 8.0 for Windows (GraphPad Demo Software, San Diego, CA, USA). Experiments were performed in triplicate and in two independent experiments. The protocol is also described in other previous publications. The IC50 of normal and cancer cells was used to calculate the SI of compounds BV3 and BV5. The SI indicated the selectivity of the compounds among the normal cell line (L-929) and a cancer cell line (HCT-116, MDA-MB-231, HepG2, or HeLa). SI is a crucial parameter for therapeutic applications in upcoming clinical trials. Therefore, the following formula was used to calculate SI: SI=IC50(normal cell line)/IC50(cancer cell line)

ABL1 = ABL1 (Homo sapiens, UniProt P00519); test: ADP-Glo kinase assay; assay type: biochemical; details: 10 µM ATP, read-out: % of residual activity; for remaining activity at 1 µM: ABL1, 1 µM compound; for remaining activity at 10 µM: ABL1, 10 µM compound
Experimental: (§1) Kinase enzymatic activities of CDK5/p25, CDK9/CyclinT, HASPIN, PIM1, GSK3β, CK1ε, ABL1, and JAK3 were assayed using the luminescent ADP detection assay described in Zegzouti et al. (ADP-GloTM assay kit provided by Promega, Madison, WI, USA). Briefly, the reactions were carried out in appropriate kinase buffer, with either protein or peptide as substrate in the presence of 10 µM ATP. Assay conditions used for each kinase tested here are described in Ibrahim et al.. The Envision (PerkinElmer, Waltham, MA, USA) microplate luminometer was used to measure the transmitted signal expressed in Relative Light Unit (RLU). In order to determine the half maximal inhibitory concentration (IC50), the assays were performed in duplicate in the absence or presence of increasing doses of the tested compounds. Kinase activities are expressed in % of maximal activity, i.e., measured in the absence of inhibitor but with a similar dose of DMSO (solvent of the tested compounds).

CDK5/p25 = CDK5/p25 (Homo sapiens, UniProt Q00535); test: ADP-Glo kinase assay; assay type: biochemical; details: 10 µM ATP, read-out: % of residual activity; for remaining activity at 1 µM: CDK5/p25, 1 µM compound; for remaining activity at 10 µM: CDK5/p25, 10 µM compound
Experimental: as §1

CDK9/CyclinT = CDK9/CyclinT (Homo sapiens, UniProt P50750); test: ADP-Glo kinase assay; assay type: biochemical; details: 10 µM ATP, read-out: % of residual activity; for remaining activity at 1 µM: 1 µM compound; for remaining activity at 10 µM: 10 µM compound
Experimental: as §1

CK1ε = CK1ε (Homo sapiens, UniProt P49674); test: ADP-Glo kinase assay; assay type: biochemical; details: 10 µM ATP, read-out: % of residual activity; for remaining activity at 1 µM: 1 µM compound; for remaining activity at 10 µM: 10 µM compound
Experimental: as §1

GSK3β = GSK3β (Homo sapiens, UniProt P49841); test: ADP-Glo kinase assay; assay type: biochemical; details: for remaining activity at 1 µM: 1 µM compound; for remaining activity at 1 µM / remaining activity at 10 µM: read-out: % of residual activity; for remaining activity at 10 µM: 10 µM compound
Experimental: as §1

JAK3 = biological target: T1, JAK3 (Homo sapiens, UniProt P52333); test: ADP-Glo kinase assay; assay type: biochemical; details: for remaining activity at 1 µM: JAK3, 1 µM compound; for remaining activity at 1 µM / remaining activity at 10 µM: 10 µM ATP, read-out: % of residual activity; for remaining activity at 10 µM: JAK3, 10 µM compound
T1 sequence (P52333 1-1124): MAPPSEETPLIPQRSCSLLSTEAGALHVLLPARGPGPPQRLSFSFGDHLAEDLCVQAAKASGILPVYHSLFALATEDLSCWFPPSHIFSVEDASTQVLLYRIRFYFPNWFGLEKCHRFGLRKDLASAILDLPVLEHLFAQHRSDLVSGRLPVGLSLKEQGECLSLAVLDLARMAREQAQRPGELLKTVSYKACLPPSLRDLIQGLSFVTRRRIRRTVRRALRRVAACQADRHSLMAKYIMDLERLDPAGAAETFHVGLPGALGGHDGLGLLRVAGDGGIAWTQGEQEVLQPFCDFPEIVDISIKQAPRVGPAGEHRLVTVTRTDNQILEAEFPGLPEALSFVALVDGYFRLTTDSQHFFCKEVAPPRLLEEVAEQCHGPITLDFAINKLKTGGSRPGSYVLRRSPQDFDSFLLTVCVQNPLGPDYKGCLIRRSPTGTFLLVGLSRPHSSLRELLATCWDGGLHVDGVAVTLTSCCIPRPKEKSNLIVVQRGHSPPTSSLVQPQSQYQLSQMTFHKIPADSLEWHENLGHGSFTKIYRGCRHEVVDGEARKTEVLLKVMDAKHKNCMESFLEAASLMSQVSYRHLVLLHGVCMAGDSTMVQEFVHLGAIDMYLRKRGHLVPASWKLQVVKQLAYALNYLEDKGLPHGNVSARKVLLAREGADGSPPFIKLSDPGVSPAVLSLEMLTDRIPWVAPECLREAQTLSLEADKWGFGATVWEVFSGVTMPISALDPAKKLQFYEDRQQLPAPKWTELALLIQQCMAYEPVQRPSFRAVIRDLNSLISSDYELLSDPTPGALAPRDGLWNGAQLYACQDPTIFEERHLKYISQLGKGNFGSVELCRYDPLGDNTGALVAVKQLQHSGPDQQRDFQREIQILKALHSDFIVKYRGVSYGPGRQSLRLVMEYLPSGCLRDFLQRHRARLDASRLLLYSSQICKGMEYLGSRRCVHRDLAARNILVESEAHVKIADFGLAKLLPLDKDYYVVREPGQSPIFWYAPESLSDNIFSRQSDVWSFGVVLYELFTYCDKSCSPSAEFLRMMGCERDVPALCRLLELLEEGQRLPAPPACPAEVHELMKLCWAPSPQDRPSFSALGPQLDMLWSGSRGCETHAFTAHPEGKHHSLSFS
Experimental: as §1

PIM1 = PIM1 (Homo sapiens, UniProt P11309); test: ADP-Glo kinase assay; assay type: biochemical; details: for remaining activity at 1 µM: PIM1, 1 µM compound; for remaining activity at 1 µM / remaining activity at 10 µM: 10 µM ATP, read-out: % of residual activity; for remaining activity at 10 µM: PIM1, 10 µM compound
Experimental: as §1

[2] = JAK3, dose–response curve, Figure 5
[3] = PIM1, dose–response curve, Figure 5

CDK5/p25, sequence (Q00535 whole entry): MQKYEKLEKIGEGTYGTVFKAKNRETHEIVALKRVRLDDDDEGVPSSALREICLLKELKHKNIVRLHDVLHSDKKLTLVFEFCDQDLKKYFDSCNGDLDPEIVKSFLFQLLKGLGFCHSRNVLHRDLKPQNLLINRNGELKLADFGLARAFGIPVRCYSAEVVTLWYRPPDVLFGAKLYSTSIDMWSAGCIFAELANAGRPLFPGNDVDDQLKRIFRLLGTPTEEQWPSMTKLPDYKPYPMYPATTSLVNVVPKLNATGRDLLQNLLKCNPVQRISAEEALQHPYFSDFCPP
CDK5/p25, sequence (Q15078 99-307 partner limits assumed): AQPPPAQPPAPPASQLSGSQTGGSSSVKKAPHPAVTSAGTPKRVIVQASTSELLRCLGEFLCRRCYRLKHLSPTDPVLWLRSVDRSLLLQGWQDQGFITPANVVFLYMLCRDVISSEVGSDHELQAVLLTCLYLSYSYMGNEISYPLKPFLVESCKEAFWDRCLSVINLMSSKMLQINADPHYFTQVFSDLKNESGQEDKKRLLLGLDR
ABL1, sequence (P00519 whole entry): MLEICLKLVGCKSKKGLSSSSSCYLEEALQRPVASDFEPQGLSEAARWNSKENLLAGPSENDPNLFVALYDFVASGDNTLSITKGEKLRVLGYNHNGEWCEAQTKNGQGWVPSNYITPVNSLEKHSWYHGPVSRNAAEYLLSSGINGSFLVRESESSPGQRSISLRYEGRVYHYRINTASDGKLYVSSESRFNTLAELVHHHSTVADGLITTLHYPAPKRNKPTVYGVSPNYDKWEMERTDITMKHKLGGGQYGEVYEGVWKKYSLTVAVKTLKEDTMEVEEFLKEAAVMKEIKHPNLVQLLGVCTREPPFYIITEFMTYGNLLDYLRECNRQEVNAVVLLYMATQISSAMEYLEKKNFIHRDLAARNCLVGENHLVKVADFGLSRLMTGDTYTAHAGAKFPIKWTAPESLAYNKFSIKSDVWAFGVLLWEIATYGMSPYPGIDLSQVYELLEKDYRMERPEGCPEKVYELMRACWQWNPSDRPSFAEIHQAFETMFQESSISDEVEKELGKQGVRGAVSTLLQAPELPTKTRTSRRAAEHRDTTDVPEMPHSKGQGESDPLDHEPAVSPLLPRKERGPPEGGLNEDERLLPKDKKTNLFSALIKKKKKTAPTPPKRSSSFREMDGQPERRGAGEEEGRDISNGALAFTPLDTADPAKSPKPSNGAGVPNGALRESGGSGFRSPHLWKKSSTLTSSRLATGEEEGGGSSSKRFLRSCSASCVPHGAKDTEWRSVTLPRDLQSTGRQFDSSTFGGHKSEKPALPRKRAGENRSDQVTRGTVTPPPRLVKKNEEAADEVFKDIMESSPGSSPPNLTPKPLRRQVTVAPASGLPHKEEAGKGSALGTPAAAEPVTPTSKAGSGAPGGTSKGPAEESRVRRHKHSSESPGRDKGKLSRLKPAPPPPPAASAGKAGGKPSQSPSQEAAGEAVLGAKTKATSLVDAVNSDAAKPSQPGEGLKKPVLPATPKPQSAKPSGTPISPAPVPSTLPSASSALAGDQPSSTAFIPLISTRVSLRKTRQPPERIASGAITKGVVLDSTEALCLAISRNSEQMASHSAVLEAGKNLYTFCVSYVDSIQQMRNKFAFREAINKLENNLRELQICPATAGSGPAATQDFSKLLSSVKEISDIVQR
PIM1, sequence (P11309 whole entry): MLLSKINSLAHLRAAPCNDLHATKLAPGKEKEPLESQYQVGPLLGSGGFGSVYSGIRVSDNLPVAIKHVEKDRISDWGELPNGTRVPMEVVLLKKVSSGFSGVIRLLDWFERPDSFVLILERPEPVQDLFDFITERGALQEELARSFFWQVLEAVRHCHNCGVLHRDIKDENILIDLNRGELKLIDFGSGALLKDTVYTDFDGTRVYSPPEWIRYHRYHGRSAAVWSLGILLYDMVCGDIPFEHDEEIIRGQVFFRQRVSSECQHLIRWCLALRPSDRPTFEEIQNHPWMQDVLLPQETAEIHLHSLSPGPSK
GSK3β, sequence (P49841 whole entry): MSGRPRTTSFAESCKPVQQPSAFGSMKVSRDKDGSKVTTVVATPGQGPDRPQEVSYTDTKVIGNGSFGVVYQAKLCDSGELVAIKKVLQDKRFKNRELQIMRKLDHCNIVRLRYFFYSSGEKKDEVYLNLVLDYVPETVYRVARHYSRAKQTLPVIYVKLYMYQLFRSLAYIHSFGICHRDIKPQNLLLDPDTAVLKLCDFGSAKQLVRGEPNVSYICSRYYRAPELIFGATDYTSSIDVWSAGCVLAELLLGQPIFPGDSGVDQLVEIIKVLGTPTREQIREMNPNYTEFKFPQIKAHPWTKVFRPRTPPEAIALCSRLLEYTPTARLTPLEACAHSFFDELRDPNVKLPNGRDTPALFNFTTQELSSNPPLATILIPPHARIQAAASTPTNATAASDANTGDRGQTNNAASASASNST
CK1ε, sequence (P49674 whole entry): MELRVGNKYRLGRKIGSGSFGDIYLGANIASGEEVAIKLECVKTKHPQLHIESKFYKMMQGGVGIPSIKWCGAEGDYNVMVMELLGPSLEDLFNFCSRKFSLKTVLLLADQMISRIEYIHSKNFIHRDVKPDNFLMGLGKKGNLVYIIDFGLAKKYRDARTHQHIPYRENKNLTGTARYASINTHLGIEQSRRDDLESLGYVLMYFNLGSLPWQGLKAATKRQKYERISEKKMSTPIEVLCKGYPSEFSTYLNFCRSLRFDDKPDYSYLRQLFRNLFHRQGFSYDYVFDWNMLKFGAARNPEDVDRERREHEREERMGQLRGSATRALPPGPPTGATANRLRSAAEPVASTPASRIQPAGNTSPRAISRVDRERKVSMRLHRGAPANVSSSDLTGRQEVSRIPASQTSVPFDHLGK
CDK9/CyclinT, sequence (P50750 whole entry): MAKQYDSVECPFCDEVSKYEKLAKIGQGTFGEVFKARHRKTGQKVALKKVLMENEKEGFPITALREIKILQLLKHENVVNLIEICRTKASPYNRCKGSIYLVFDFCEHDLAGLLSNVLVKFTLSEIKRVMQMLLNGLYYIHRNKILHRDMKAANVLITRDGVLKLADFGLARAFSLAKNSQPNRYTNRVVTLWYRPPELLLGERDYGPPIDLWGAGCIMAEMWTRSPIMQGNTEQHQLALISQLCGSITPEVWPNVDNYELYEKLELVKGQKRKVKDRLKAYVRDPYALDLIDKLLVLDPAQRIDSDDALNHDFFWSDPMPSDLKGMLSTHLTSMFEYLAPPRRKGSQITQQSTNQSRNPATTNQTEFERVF
CDK9/CyclinT, sequence (O60563 whole entry partner): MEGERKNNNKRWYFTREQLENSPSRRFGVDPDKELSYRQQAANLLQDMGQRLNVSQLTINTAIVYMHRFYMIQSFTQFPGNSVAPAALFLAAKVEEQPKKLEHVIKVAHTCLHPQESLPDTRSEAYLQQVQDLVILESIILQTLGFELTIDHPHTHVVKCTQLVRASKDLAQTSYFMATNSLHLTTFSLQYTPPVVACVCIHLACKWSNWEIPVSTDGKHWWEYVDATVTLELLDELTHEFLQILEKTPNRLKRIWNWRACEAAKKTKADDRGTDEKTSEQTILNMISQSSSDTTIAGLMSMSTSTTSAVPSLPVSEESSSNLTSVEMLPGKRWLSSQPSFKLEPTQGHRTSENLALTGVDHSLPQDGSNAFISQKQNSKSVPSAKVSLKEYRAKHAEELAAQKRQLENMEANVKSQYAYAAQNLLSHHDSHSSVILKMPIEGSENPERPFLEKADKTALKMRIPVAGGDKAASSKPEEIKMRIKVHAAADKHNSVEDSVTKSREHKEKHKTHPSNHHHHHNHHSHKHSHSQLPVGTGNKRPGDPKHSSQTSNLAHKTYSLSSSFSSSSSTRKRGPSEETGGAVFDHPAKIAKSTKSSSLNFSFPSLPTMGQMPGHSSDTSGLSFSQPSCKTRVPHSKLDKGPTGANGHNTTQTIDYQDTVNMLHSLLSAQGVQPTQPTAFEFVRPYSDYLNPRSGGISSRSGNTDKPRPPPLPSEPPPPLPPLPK

SMILES | IC50 ([1]; 24 h) [µM] | IC50 ([1]; 48 h) [µM] | IC50 ([1]; 72 h) [µM] | selectivity index (SI) ([1]; 72 h) | remaining activity at 1 µM (ABL1) [%] | remaining activity at 10 µM (ABL1) [%] | remaining activity at 1 µM (CDK5/p25) [%] | remaining activity at 10 µM (CDK5/p25) [%] | remaining activity at 1 µM (CDK9/CyclinT) [%] | remaining activity at 10 µM (CDK9/CyclinT) [%] | remaining activity at 1 µM (CK1ε) [%] | remaining activity at 10 µM (CK1ε) [%] | remaining activity at 1 µM (GSK3β; 10 µM ATP) [%] | remaining activity at 10 µM (GSK3β; 10 µM ATP) [%] | remaining activity at 1 µM (JAK3) [%] | remaining activity at 10 µM (JAK3) [%] | remaining activity at 1 µM (PIM1) [%] | remaining activity at 10 µM (PIM1) [%] | IC50 (GSK3β; 10 µM ATP) [µM] | IC50 (JAK3; [2]) [µM] | other results
CC1(C)CCC2=C(O1)c1ccccc1C(=O)C2=O [β-lap, β-Lapachone] | 10.7 | 8.87 | 2.39 | 1.89 and 1.9 | 83 | 81 | 74 | 88 | ≥ 100 | 72 | ≥ 100 | 94 | 67 | 43 | 65 | 69 | 56 | 42 | – | – | –
Cc1ccc(NC(=S)N/N=C2\C(=O)C3=C(OC(C)(C)CC3)c3ccccc32)cc1 [BV5, 2-(2,2-dimethyl-5-oxo-3,4-dihydro-2H-benzo[h]chromen-6(5H)-ylidene)-N-(p-tolyl)-thiocarbohydrazide] | > 61 | 24.5 | 17.8 | – | 83 | 56 | ≥ 100 | 62 | ≥ 100 | 78 | 98 | 86 | 64 | 24 | 64 | 4 | 94 | 42 | 4.91 | 0.522 | IC50 (JAK3; JAK3, 10 µM ATP): 0.52 µM; IC50 (PIM1; PIM1, 10 µM ATP): 8.74 µM; IC50 (PIM1; [3]): 8.74 µM
CC1(C)CCC2=C(O1)c1ccccc1/C(=N/NC(=S)Nc1ccc([N+](=O)[O-])cc1)C2=O [BV3, 2-(2,2-dimethyl-5-oxo-3,4-dihydro-2H-benzo[h]chromen-6(5H)-ylidene)-N-(4nitrophen-yl)thio-carbohydrazide] | > 57 | 23.5 | 2.81 | 15.6 | 52 | 35 | ≥ 100 | 44 | ≥ 100 | 67 | ≥ 100 | 98 | 58 | 7 | -3 | -9 | ≥ 100 | 18 | 1 | 0.115 | IC50 (GSK3β; dose–response curve, Figure 5): 1 µM; IC50 (PIM1; PIM1, 10 µM ATP): 4.15 µM; IC50 (PIM1; [3]): 4.16 µM
